Data set [1] concerns J774.A1. Description: Antiinflammatory activity against LPS-induced mouse J774.A1 cells assessed as inhibition of IL-6 release at 10 uM pretreated for 30 mins followed by LPS stimulation and measured after 24 hrs by ELISA relative to control. It counts as functional. The note with it: time 24.5 hrs. (In an ELISA, binding on a coated surface is turned into a signal by an enzyme label.)

Data set [2] concerns Mus musculus. Nature of the data set: Antiinflammatory activity against C57BL/6 mouse model of LPS induced acute lung injury assessed as reduction in IL-6 level in serum at 20 mg/kg, po administered every 12 hrs for 3 times followed by LPS stimulation for 6 hrs starting from 30 mins post last dose by ELISA. It counts as functional, organism-based. Conditions: time 42.5 hrs.

In data set [3] the test system is Mus musculus. Nature of the data set: Antiinflammatory activity against C57BL/6 mouse model of LPS induced acute lung injury assessed as reduction in IL-6 level in BALF at 20 mg/kg, po administered every 12 hrs for 3 times followed by LPS stimulation for 6 hrs starting from 30 mins post last dose by ELISA. It counts as functional, organism-based. The note with it: time 42.5 hrs.

The test system of data set [4] is Mus musculus. Nature of the data set: Antiinflammatory activity against C57BL/6 mouse model of LPS induced acute lung injury assessed as reduction in pulmonary edema by measuring reduction in lung wet/dry ratio at 20 mg/kg, po administered every 12 hrs for 3 times followed by LPS stimulation for 6 hrs starting from 30 mins post last dose. The note with it: time 42.5 hrs. Format: functional, organism-based.

For data set [5], the system named is Mus musculus. Nature of the data set: Antiinflammatory activity against C57BL/6 mouse model of LPS induced acute lung injury assessed as reduction in TNF-alpha mRNA expression in lung at 20 mg/kg, po administered every 12 hrs for 3 times followed by LPS stimulation for 6 hrs starting from 30 mins post last dose by RT-qPCR analysis. It counts as functional, organism-based. Conditions: time 42.5 hrs. (In general: Quantitative PCR measures a nucleic acid by following its amplification.)

Data set [6] concerns Mus musculus. Description: Antiinflammatory activity against C57BL/6 mouse model of LPS induced acute lung injury assessed as reduction in total number of cells in BALF at 20 mg/kg, po administered every 12 hrs for 3 times followed by LPS stimulation for 6 hrs starting from 30 mins post last dose. Format: functional, organism-based. The note with it: time 42.5 hrs.
Data set [7] concerns Mus musculus. Description: Antiinflammatory activity against C57BL/6 mouse model of LPS induced acute lung injury assessed as reduction in IL-6 mRNA expression in lung at 20 mg/kg, po administered every 12 hrs for 3 times followed by LPS stimulation for 6 hrs starting from 30 mins post last dose by RT-qPCR analysis. Format: functional, organism-based. The note with it: time 42.5 hrs.

In data set [8] the test system is J774.A1. Description: Cytotoxicity against mouse J774.A1 cells assessed as reduction in cell proliferation at 10 uM measured after 24 hrs by CCK-8 assay. It counts as toxicity, cell-based. Conditions: j774.a1, 24 h.
Data set [9] has as its system THP-1. Description: Antiinflammatory activity against LPS-induced PMA-differentiated human THP-1 cells assessed as inhibition of IL-6 release at 5 to 40 uM pretreated for 30 mins followed by LPS stimulation and measured after 24 hrs by ELISA. It counts as functional, cell-based. The note with it: dose 5-40 µM, time 24.5 hrs.
In data set [10] the test system is RAW264.7. Description: Antiinflammatory activity against LPS-induced mouse RAW264.7 cells assessed as inhibition of TNF-alpha release pretreated for 30 mins followed by LPS stimulation and measured after 24 hrs by ELISA. It counts as functional, cell-based.
Data set [11] deals with J774.A1. Description: Antiinflammatory activity against LPS-induced mouse J774.A1 cells assessed as inhibition of TNF-alpha release at 1.25 to 10 uM pretreated for 30 mins followed by LPS stimulation and measured after 24 hrs by ELISA. Format: functional, cell-based. Conditions: dose 1.25-10 µM, time 24.5 hrs.
The subject of data set [12] is J774.A1. Nature of the data set: Antiinflammatory activity against LPS-induced mouse J774.A1 cells assessed as inhibition of IL-6 release at 1.25 to 10 uM pretreated for 30 mins followed by LPS stimulation and measured after 24 hrs by ELISA. It counts as functional, cell-based. The note with it: dose 1.25-10 µM, time 24.5 hrs.
Data set [13] has as its system RAW264.7. Description: Antiinflammatory activity against LPS-induced mouse RAW264.7 cells assessed as inhibition of IL-6 release pretreated for 30 mins followed by LPS stimulation and measured after 24 hrs by ELISA. Format: functional, cell-based.
The test system of data set [14] is THP-1. Description: Antiinflammatory activity against LPS-induced PMA-differentiated human THP-1 cells assessed as inhibition of TNF-alpha release at 5 to 40 uM pretreated for 30 mins followed by LPS stimulation and measured after 24 hrs by ELISA. Format: functional, cell-based. Conditions: dose 5-40 µM, time 24.5 hrs.
Data set [15] is described as follows: Aqueous solubility of compound in phosphate buffer at pH 7.4 measured after 24 hrs by HPLC analysis. It counts as physicochemical.
Data set [16] concerns J774.A1. Nature of the data set: Antiinflammatory activity against LPS-induced mouse J774.A1 cells assessed as inhibition of IL-6 release at 10 uM pretreated for 30 mins followed by LPS stimulation and measured after 24 hrs by ELISA. Format: functional, cell-based. The note with it: time 24.5 hrs.
The test system of data set [17] is Mus musculus. Description: Antiinflammatory activity against C57BL/6 mouse model of DSS induced ulcerative colitis assessed as reduction in inflammatory cytokines infiltration in intestine at 100 mg/kg, po administered daily for 10 days by immunohistochemical staining based analysis. It counts as functional, organism-based. The note with it: time 10.0 day.
Data set [18] has as its system Mus musculus. Description: Antiinflammatory activity against C57BL/6 mouse model of DSS induced ulcerative colitis assessed as reduction in IL-6 level in serum at 100 mg/kg, po administered daily for 10 days. Format: functional, organism-based. Conditions: time 10.0 day.
Data set [19] has as its system Mus musculus. Nature of the data set: Antiinflammatory activity against C57BL/6 mouse model of DSS induced ulcerative colitis assessed as reversal of weight loss at 100 mg/kg, po administered daily for 10 days. It counts as functional, organism-based. Conditions: time 10.0 day.
Data set [20] has as its system Mus musculus. Description: Antiinflammatory activity against C57BL/6 mouse model of DSS induced ulcerative colitis assessed as reversal of shortened intestinal length due to fecal obstruction at 100 mg/kg, po administered daily for 10 days. It counts as functional, organism-based. The note with it: time 10.0 day.

Structures are written as SMILES. Converted amounts (≈) assume the structure as drawn. The source made the active and inactive calls. The rule behind the calls is not given here.

Take `CC(C)=CCc1c(OCc2cccc(C)c2)ccc2ccc(=O)oc12`: the inhibition at 10 µM in data set [1] is 77.9%.

With `CC(C)=CCc1c(OCC2CCCCC2)ccc2ccc(=O)oc12`, the inhibition at 10 µM in [1] was found to be 88%.

`CC(C)=CCc1c(OCc2ccc(C)cc2)ccc2ccc(=O)oc12`: the inhibition at 10 µM in [1] worked out at 88.7%.

Take `CC(C)=CCc1c(OCCN2CCOCC2)ccc2ccc(=O)oc12`: the inhibition at 10 µM in data set [1] turned out to be 71.7%.

`C[C@@H]1C[C@H]2[C@@H]3CCC4=CC(=O)C=C[C@]4(C)[C@@]3(F)[C@@H](O)C[C@]2(C)[C@@]1(O)C(=O)CO`: the outcome in [2], in data set [3], in data set [4], in [5], in data set [6] and in data set [7] was Active.

`CC(C)=CCc1c(OCC2CC2)ccc2ccc(=O)oc12`: the inhibition at 10 µM in [1] was 64.2%.

On to `CC(C)=CCc1c(OCC(=O)Nc2ccccc2Br)ccc2ccc(=O)oc12`, for which the Activity entry in data set [8] is reported as “Toxic”. In data set [1], the inhibition at 10 µM stood at 88.3%.

Take `CC(C)=CCc1c(OCC2CCCO2)ccc2ccc(=O)oc12` (centres undefined): in data set [1], the inhibition at 10 µM came to 82.5%.

For `COc1cccc(COc2ccc3ccc(=O)oc3c2CC=C(C)C)c1`, in data set [1], the inhibition at 10 µM was found to be 80.2%.

In the case of `COc1ccc2ccc(=O)oc2c1CC=C(C)C` [OSTHOLE], the result in data set [9], in data set [11], in [12] and in data set [14] was inactive. The IC50 in [10] amounted to 113 µM; in [13] it was 146 µM. In data set [15], this compound registered a solubility at 24 h of 10 µg/mL (≈ 40.9 µM).

Turning to `CCN1CCN(CCCOc2ccc3ccc(=O)oc3c2CC=C(C)C)CC1`, in [8], the Activity entry was “Toxic”. The inhibition at 10 µM in data set [1] was found to be 92.2%.

For `CC(C)=CCc1c(OCCCN2CCCC2)ccc2ccc(=O)oc12`, the inhibition at 10 µM in data set [1] stood at 63.3%.

Take `CCN1CCN(C(=O)COc2ccc3ccc(=O)oc3c2CC=C(C)C)CC1`: in [1], the inhibition at 10 µM was 46%.

Consider `CC(C)=CCc1c(OCC(=O)NCCCN2CCOCC2)ccc2ccc(=O)oc12`, for which the inhibition at 10 µM in data set [1] worked out at 21.5%.

Turning to `CC(C)=CCc1c(OCC2CO2)ccc2ccc(=O)oc12` (centres undefined), the inhibition at 10 µM in data set [1] was determined as 82.3%.

For `CC(C)=CCc1c(OCCN2CCN(C)CC2)ccc2ccc(=O)oc12`, the inhibition at 10 µM in data set [1] came to 69%.

Take `CC(C)=CCc1c(OCCNCCN2CCOCC2)ccc2ccc(=O)oc12`: the inhibition at 10 µM in [1] was determined as 46.8%.

As to `CC(C)=CCc1c(OCCN2CCCC2)ccc2ccc(=O)oc12`, the outcome in data set [16] was inactive.

`Nc1ccc(O)c(C(=O)O)c1`: the outcome in data set [17], in data set [18], in [19] and in [20] was Active.

For the compound `CC(C)=CCc1c(OCCN2CCCCC2)ccc2ccc(=O)oc12`, the inhibition at 10 µM in data set [1] was 10.6%.

Turning to `CC(C)=CCc1c(OCCCN2CCN(C)CC2)ccc2ccc(=O)oc12`, the inhibition at 10 µM in [1] worked out at 81.9%.

For `CC(C)=CCc1c(OCC(=O)Nc2ccccc2)ccc2ccc(=O)oc12`, in data set [1], the inhibition at 10 µM was 48.5%.

For `CC(C)=CCc1c(OCc2cccc(F)c2)ccc2ccc(=O)oc12`, the inhibition at 10 µM in data set [1] amounted to 68.8%.

For the compound `CC(C)=CCc1c(OCCCN2CCOCC2)ccc2ccc(=O)oc12`, in data set [1], the inhibition at 10 µM was 69%.

On to `CCN1CCN(CCOc2ccc3ccc(=O)oc3c2CC=C(C)C)CC1`, for which the inhibition at 10 µM in [1] was found to be 88.6%.

As to `CC(C)=CCc1c(OCCN(C)C)ccc2ccc(=O)oc12`, the outcome in data set [16] was inactive.

On to `CC(C)=CCc1c(OCCCCN2CCN(C)CC2)ccc2ccc(=O)oc12`, for which the inhibition at 10 µM in data set [1] worked out at 82.3%.

For `CC(C)=CCc1c(OCCN2CCCC(C)C2)ccc2ccc(=O)oc12` (centres undefined), the inhibition at 10 µM in data set [1] came out at 31.4%.

The term inhibition denotes the change of the read-out against control, counted positive when it falls. The term IC50 denotes the concentration that gives 50% inhibition. One may read the solubility as the concentration that dissolves in the medium under given conditions.

The values are drawn from ChEMBL document CHEMBL5505996, “Discovery of novel osthole derivatives exerting anti-inflammatory effect on DSS-induced ulcerative colitis and LPS-induced acute lung injury in mice” (Eur J Med Chem, 2024).
